Measurements from patent US20090214420A1, “Method of Diagnosis and Treatment and Agents Useful for Same” (MEDVET SCIENCE PTY. LTD., priority 2005, published 2009).
“Also recorded” adds a separate entry of the source.

Tests used:
Format in all cases: cell-based, human
[1] = system: Jurkat cells; assay: Flow cytometry (PI, La, hTERT, TRF2 staining) of Jurkat cells after cytotoxic treatment; settings: FIG. 4B; for hTERT staining of Jurkat cells: 48 h treatment, only in PI high cells
Protocol: (§1) FIG. 4 is a graphical representation of the cytotoxic treatment of malignant human cells results in increased expression of TRF2 and La in apoptotic cells 24 h after treatment and in increased expression of hTERT in apoptotic cells 48 h after treatment. A. Jurkat cells after 24 h treatment with cytotoxic agents. […] B. Jurkat cells after 48 h treatment with cytotoxic agents. […] C. Raji cells after 24 h treatment with cytotoxic agents. […] D. Jurkat cells after 24 h treatment with cytotoxic agents. […] E. Jurkat cells after 48 h treatment with cytotoxic agents. Staining for La (3B9-F1TC) and TRF2 in apoptotic cells was more evident 48 h after treatment with all cytotoxic agents. F. Raji cells after 48 h treatment with cytotoxic agents. […] G. HeLa cells after 48 h treatment with cytotoxic agents. […] In each case, the staining is indicated above each column of panels and the cytotoxic employed is indicated to the left of each row of panels. Also indicated is a PI only control and negative controls for hTERT staining (purified rat IgG or anti-rat secondary antibody alone) and for TRF2 staining (purified mouse IgG or anti-mouse secondary antibody alone).
(§2) The Jurkat and Raji cell lines were cultured in RPMI supplemented with 10% FCS, 50 U/mL penicillin and 50 μg/mL streptomycin sulphate and the U2OS and HeLa cell lines were cultured in DMEM supplemented with 10% FCS, 50 U/mL penicillin and 50 μg/mL streptomycin sulphate (JRH Laboratories). The cell lines were treated for 24 or 48-hour periods with various cytotoxic agents as follows: Jurkat and Raji cells with etoposide, 20 μg/mL; HeLa and U2OS cells with cisplatin, 1 μg/mL, and vincristine, 0.1 μg/mL; Jurkat, HeLa and U2OS cells with 0.5 μM STS, and Raji cells with 2 μM STS. The treated cells were stained with propidium iodide (PI) (Sigma) 0.5 μg/mL and FITC-conjugated Sal5 or 3B9 mAb, or mouse anti-TRF2 mAb (clone 36, Becton-Dickinson) and then secondary antibody, anti mouse FITC (Chemicon, Temecula, Calif., USA), or rat anti-hTERT mAb (clone 36-10, Alexis Biochemicals) and then secondary antibody, anti rat FITC (Caltag, Burlingame, Calif., USA). Purified mouse IgG or rat IgG (Institute of Medical and Veterinary Science, Adelaide, Australia) were used as negative controls for TRF2 and hTERT staining, respectively. To further improve the method for detection of hTERT for later use in whole blood staining, which appeared to have been hindered by the presence of autofluorescence presumably emanating from red blood cells, anti-hTERT monoclonal antibody clone 36-10 was conjugated directly to AlexaFluor350 (Molecular Probes), which is excited at 355 nm and emits maximally between 420-460 nm. Anti-hTERT-Alexa350 was combined with the EpCAM monoclonal antibody (BD Biosciences), which is conjugated to PE that excites at 488 nm and emits 560-590 nm, and the nuclear impermeant DNA-binding dye TOPRO-3 (Molecular Probes), which excites at 560 nm and emits maximally in the far red region (>650 nm).
The human T cell leukemia cell line, Jurkat, and the human B lymphoma cell line, Raji, were treated for 24 or 48 hour periods with the following cytotoxic agents: staurosporine, which is a pan-kinase inhibitor, etoposide, which is a topoisomerase II inhibitor, vincristine, which is a microtubule depolymerising agent and cisplatin, which is a DNA cross linking agent. Cells were then stained with propidium iodide (PI) and the anti-La monoclonal antibody (mAb), 3B9, or its isotype control, Sal5, or with mAbs specific for hTERT or TRF2. As negative controls for staining with the hTERT- or TRF2-specific mAbs, rat IgG and anti-rat secondary antibody or mouse IgG and anti-mouse secondary antibody, respectively, were used.

[2] = system: HeLa cells; assay: Flow cytometry (PI, La, hTERT, TRF2 staining) of HeLa cells after cytotoxic treatment; settings: FIG. 4G; for apoptosis and La staining in HeLa cells: 48 h treatment
Protocol: as §1, §2
Similarly, TRF2 staining of PI^+ dead Jurkat cells was evident as soon as 24 hours after cytotoxic treatment (FIG. 4D) and 48 hours afterwards (F1G. 4E). […] In contrast, it took 48 hours after treatment with cisplatin, etoposide and vincristine for hTERT staining of PI^+ dead Jurkat cells to be evident (arrows, FIG. 4B). hTERT staining of PI^+ dead Raji cells was evident 48 hours after treatment with vincristine (arrow, FIG. 4C). As additional controls, the telomerase-expressing human cervical carcinoma cell line, HeLa, and the telomerase-negative human osteosarcoma cell line, U2OS (M Frolkis et al. Cancer Gene Therapy 10, 239-249, 2003), were also treated with staurosporine, vincristine and etoposide and analysed by flow cytometry 48 hours after treatment.

[3] = system: U2OS cells; assay: Flow cytometry (PI, La, hTERT, TRF2 staining) of U2OS cells after cytotoxic treatment; settings: FIG. 4H
Protocol: as §1, §2
Similarly, TRF2 staining of PI^+ dead Jurkat cells was evident as soon as 24 hours after cytotoxic treatment (FIG. 4D) and 48 hours afterwards (F1G. 4E). […] As additional controls, the telomerase-expressing human cervical carcinoma cell line, HeLa, and the telomerase-negative human osteosarcoma cell line, U2OS (M Frolkis et al. Cancer Gene Therapy 10, 239-249, 2003), were also treated with staurosporine, vincristine and etoposide and analysed by flow cytometry 48 hours after treatment.

[4] = system: H69 cells; assay: BerEP4-FITC / PI staining of etoposide-treated H69 cells; settings: 48 hours
Protocol: FIG. 8 is a graphical representation of the staining of H69 cells using the anti-epithelial marker monoclonal antibody BerEP4-FITC. H69 cells (1×10^6 cells/mL) were cultured in RPMI-1640 containing 5% FCS in the absence or presence of the specified concentrations of etoposide (0-400 μg/mL). After 48 hours of incubation, cells were collected and incubated at room temperature for 15 minutes with (A) 5 μg/mL BerEP4-FITC or (B) 5 μg/mL mouse IgG2aκ-FITC isotype. Cells were washed and pellets were resuspended in 0.5 μg/mL solution of PI in PBS then analysed by flow cytometry.

[5] = system: Raji cells; assay: Flow cytometry (PI, La, hTERT, TRF2 staining) of Raji cells after cytotoxic treatment; settings: for TRF2 staining of Raji cells: 48 hours, FIG. 4F
Protocol: as §1
as §2, with “Anti-hTERT-Alexa350 was combined with the EpCAM monoclonal antibody (BD Biosciences), which is conjugated to PE that excites at 488 nm and emits 560-590 nm, and the nuclear impermeant DNA-binding dye TOPRO-3 (Molecular Probes), which excites at 560 nm and emits maximally in the far red region (>650 nm).” left out

[6] = system: U2OS cells; assay: Viability analysis using trypan blue staining after induction of apoptosis, U2OS cells; settings: 0.5 μM staurosporine
Protocol: (§3) Jurkat cells (ATCC #TIB-152) were maintained in RPMI 1640 supplemented with 5% fetal calf serum (FCS). U2OS cells (ATCC #HTB-96) were maintained in DMEM supplemented with 5% FCS and passaged every 48-72 hours after detachment with Trypsin EDTA. Jurkat cells express telomerase and thus have the integral RNA component, hTR, whereas U2OS cells lack telomerase and hTR. Apoptosis was induced by the addition of 0.5 μM staurosporine to the culture media for 24, 48 or 72 hours.
(§4) The RNA for hTR was not detected in the hTR-negative U2OS cells but was detected in the hTR-positive Jurkat cells 24, 48 and 72 hours after the induction of apoptosis.

[7] = system: Jurkat cells; assay: Viability analysis using trypan blue staining after induction of apoptosis, Jurkat cells; settings: 0.5 μM staurosporine
Protocol: as §3, §4

[8] = system: PBMC; assay: hTERT / 7-AAD staining of PBMC after staurosporine-induced apoptosis; settings: 24 hours after induction of apoptosis, 1 μM staurosporine, FIG. 5
Protocol: (§5) FIG. 5 is a graphical representation of the culturing of PMBC with conconavalin A (conA) 10 μg/mL for 72 h. Viable cells were obtained by density gradient centrifugation and then apoptosis was induced using 1 μM staurosporine for 24 h. Jurkat cells were also treated with 1 μM staurosporine for 24 h. Dot plots depict staining for 7-AAD and hTERT. The negative control is staining with the secondary antibody alone.
(§6) Peripheral blood mononuclear cells (PBMC) were prepared from a buffy coat of a discarded unit of whole blood that had been obtained from the South Australian Red Cross Blood Bank. Initially, PBMC had been separated by density gradient centrifugation over Lymphoprep (Axis-Shield, Dundee, UK) and frozen in aliquots using a controlled rate freezer. […]
(§7) After treatment, all cells were harvested, washed in PBS and stained with 7-amino actinomycin D (7-AAD) (2 μg/mL) and anti-La 3B9 mAb or its isotype control mAb, Sal5, and then with the secondary anti-mouse antibody conjugated to R-phycoerythrin (Zymed, San Francisco, Calif., USA), or with rat anti-hTERT mAb (Alexis Biochemicals, San Diego, Calif., USA) and then with the secondary anti-rat antibody conjugated to FITC (Chemicon). Cells were analysed using a FACScan (Becton Dickinson, Franklin Lakes, N.J., USA) and the results analysed with WinMDI v2.8 software.

[9] = system: Jurkat cells; assay: hTERT / 7-AAD staining of Jurkat cells after staurosporine-induced apoptosis; settings: 24 hours after induction of apoptosis, 1 μM staurosporine, FIG. 5
Protocol: as §5, §6, §7

Compound | hTERT staining of Jurkat cells [1] | time after treatment for hTERT staining of PI+ dead Jurkat cells to be evident [1] [h] | hTERT staining of PI+ dead HeLa cells ([2]; 48 hours after treatment) | apoptosis and La staining in HeLa cells [2] | hTERT staining of PI+ dead U2OS cells ([3]; 48 hours after treatment) | TRF2 staining of Raji cells [5] | also measured
COc1cc([C@@H]2c3cc4c(cc3[C@@H](O[C@@H]3O[C@@H]5CO[C@@H](C)O[C@H]5[C@H](O)[C@H]3O)[C@H]3COC(=O)[C@H]23)OCO4)cc(OC)c1O [etoposide] | increased staining for hTERT | 48 | Evident staining; also recorded: staining for hTERT | induced apoptosis | not | – | TRF2 staining of PI+ dead HeLa cells ([2]; 48 hours after treatment): Evident staining; also recorded: little staining for TRF2; etoposide concentration giving maximal proportion of dead (BerEP4+ PI+) H69 carcinoma cells ([4]; FIG. 8A): 200 to 400 µg/mL; extent of cell death of H69 cells ([4]; etoposide 0-400 μg/mL, FIG. 8): dose-dependent
N.N.[Cl][Pt][Cl] [cisplatin] | increased staining for hTERT | 48 | – | – | – | slightly increased staining; also recorded: increased TRF2 staining | –
CN[C@@H]1C[C@H]2O[C@@](C)([C@@H]1OC)n1c3ccccc3c3c4c(c5c6ccccc6n2c5c31)C(=O)NC4 [staurosporine] | – | – | Evident staining; also recorded: staining for hTERT | induced apoptosis | not and no corresponding staining | – | U2OS cells dead (trypan blue) ([6]; 24 hours): 36%; U2OS cells dead (trypan blue) ([6]; 48 hours): 95%; U2OS cells dead (trypan blue) ([6]; 72 hours): 100%; Jurkat cells dead (trypan blue) ([7]; 24 hours): 40%; Jurkat cells dead (trypan blue) ([7]; 48 hours): 85%; Jurkat cells dead (trypan blue) ([7]; 72 hours): 100%; TRF2 staining of PI+ dead U2OS cells ([3]; 48 hours after treatment): no corresponding staining; apoptosis and La staining in U2OS cells ([3]; 48 h treatment): induced apoptosis; telomerase expression in dead PBMC [8]: little if any; telomerase expression in Jurkat cells [9]: little if any
CC[C@]1(O)C[C@H]2CN(CCc3c([nH]c4ccccc34)[C@@](C(=O)OC)(c3cc4c(cc3OC)N(C=O)[C@H]3[C@@](O)(C(=O)OC)[C@H](OC(C)=O)[C@]5(CC)C=CCN6CC[C@]43[C@@H]65)C2)C1 [vincristine] | increased staining for hTERT | 48 | Evident staining; also recorded: staining for hTERT | induced apoptosis | not | slightly increased staining; also recorded: increased TRF2 staining | hTERT staining of Raji cells ([5]; 24 h treatment (legend FIG. 4C)): marginally increased staining; hTERT staining of PI+ dead Raji cells ([5]; 48 hours after treatment (text, FIG. 4C)): evident
